Experimental data taken from patent US20170258722A1, “ENCAPSULATING LIPOSOMES” (priority 2012, published 2017).

Experimental: Chloroform was removed by flash evaporation and the lipid mixture was dissolved in 1 ml of warm tert-butanol (also referred to as t-butanol). The tert-butanol solution of lipid was then frozen rapidly by immersing the tube in a mixture of isopropanol and dry ice. […] The excess sulfuric acid was then neutralized by adding an appropriate volume of 5 M sodium hydroxide alone or with phosphate buffer. […] After drug loading, the mixture was diluted with 0.9% w/v sodium chloride and sedimented in an ultracentrifuge for 1 hour at 30,000×g. The supernatant was carefully removed and the pellet was re-suspended in a small volume of 0.9% w/v NaCl.
First, DPPC/cholesterol films were lyophilized from t-butanol-treated lipid films. […] Liposomes were sedimented by centrifugation at 30,000 rpm for 0.5 hour to remove any unencapsulated drug.
To measure the encapsulated contents of the liposomes, the liposomes were washed in 0.9% NaCl solution and solubilized with 1:3:1 NaCl:methanol:chloroform.

In the case of `CCN(CC)CCCC(C)Nc1ccnc2cc(Cl)ccc12` (centres unmarked) [chloroquine], the “Drug Loading (% of Added)” value (Table 2, DPPC:Cholesterol 2:1 liposomes, 0.375M sulfuric acid, phosphate buffered loading) is reported as 100 % of Added and the “loaded using the acid loading methodology” value (sulfuric acid 0.375 M, 6 mg buprenorphine, 33 mg chloroquine added) is reported as 100%.
